Measured values published in EP4741420A1, “PHARMACEUTICAL COMPOSITION FOR PREVENTING OR TREATING OBESITY COMPRISING GLP ANALOGUE AS ACTIVE INGREDIENT” (priority 2023, dated 2025).
Peptide text beside a SMILES is read from it.

Tests used:
GLP-2 = molecular target: T1, GLP-2 (Homo sapiens, UniProt O95838); assay: GLP-2 activity, cell-based cAMP assay (same method as Example 2); conditions: Example 5, relative to GLP-2
T1 sequence (O95838 1-553): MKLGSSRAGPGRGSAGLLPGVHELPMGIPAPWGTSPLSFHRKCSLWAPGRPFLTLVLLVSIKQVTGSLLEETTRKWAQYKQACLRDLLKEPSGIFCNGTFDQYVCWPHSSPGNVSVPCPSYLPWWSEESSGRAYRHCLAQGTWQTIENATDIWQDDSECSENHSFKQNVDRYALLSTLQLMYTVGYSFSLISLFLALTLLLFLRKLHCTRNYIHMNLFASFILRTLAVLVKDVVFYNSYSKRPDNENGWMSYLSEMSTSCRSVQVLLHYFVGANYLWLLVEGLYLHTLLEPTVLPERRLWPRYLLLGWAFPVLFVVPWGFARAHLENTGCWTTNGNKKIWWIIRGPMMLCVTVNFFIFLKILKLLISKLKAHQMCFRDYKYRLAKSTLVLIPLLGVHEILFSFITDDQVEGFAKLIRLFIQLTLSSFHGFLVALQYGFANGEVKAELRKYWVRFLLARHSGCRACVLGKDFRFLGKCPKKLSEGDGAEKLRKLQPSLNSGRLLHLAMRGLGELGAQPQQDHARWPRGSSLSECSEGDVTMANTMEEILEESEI

[1] = tested on: diet-induced obesity (DIO) mouse model; assay: DIO mouse model QD: liver damage markers AST/ALT (Example 8-1); format: in vivo; conditions: serum, DIO mice, QD (once daily), 45 nmol/kg/dose
Description: The anti-obesity effect in the liver was analyzed for the same materials used in Example 7. Specifically, liver damage marker (AST/ALT) analysis, liver weight/fatty liver examination, hepatic triglyceride measurement, and liver ORO staining analysis were performed.
To analyze the liver damage markers, AST/ALT, blood biochemical analysis was performed on the blood of a material-treated obese mouse model. Specifically, the collected blood was divided into two tubes, approximately 200 µL of the blood was put into each EDTA tube, and the remaining volume was injected into a vacutainer tube containing a coagulant. Blood collected in an EDTA tube was used to measure glycated hemoglobin on the same day, while the blood collected in the vacutainer tube was left at room temperature for 15 to 20 minutes to coagulate, and then centrifuged for 10 minutes to obtain serum. The serum was used for blood biochemical analysis.

GLP-1R = GLP-1R (Homo sapiens, UniProt P43220); assay: GLP-1 activation: cell-based cAMP assay in GLP-1R/CHO cells
[2] = tested on: diet-induced obesity (DIO) mouse model; assay: DIO mouse model QD: hepatic triglyceride measurement (Example 8-3); format: in vivo; conditions: liver tissue, DIO mice, QD (once daily), 45 nmol/kg/dose
Description: To measure hepatic triglyceride levels, triglycerides in liver tissue excised on the necropsy day were analyzed using a measurement kit (Biomax, Cat no. BM-TGR-100).

[3] = tested on: diet-induced obesity (DIO) mouse model; assay: DIO mouse model QD: body composition by DEXA (Example 7-2); format: in vivo, mice; conditions: QD (once daily), 45 nmol/kg/dose
Description: (§1) The anti-obesity effects of SEQ ID NO: 1 prepared in Example 1, and SEQ ID NOs: 6 and 7 prepared in Example 4 were analyzed. […] In addition, as an experimental model, a diet-induced obesity (DIO) mouse model fed a high-fat diet for 3 months was used.
To analyze the anti-obesity effect, body composition analysis was conducted using Dual Energy X-ray Absorptiometry (DEXA). The DEXA imaging system (VET DXA iNSiGHT) is for measuring the bone density and body fat of an experimental animal through dual X-ray transmission, and after the completion of experimental material administration, DEXA fat mass and muscle mass were measured for each individual. Accordingly, body weight was categorized into BMC, lean, and fat, and the fat reduction was analyzed to provide a more objective assessment of the anti-obesity effect according to Example 7-1.

[4] = Mouse PK after single subcutaneous administration, LC-MS/MS of plasma; format: in vivo, mice; conditions: male, C57BL/6N, mouse, in vivo, sc
Procedure, shortened: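 Single subcutaneous dorsal dose of 0.2 mg/5 mL/kg to mice (12 per group). Plasma quantified by LC-MS/MS; parameters from non-compartmental analysis.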

C57BL/6 DIO mice = assay: Diet-induced obesity mouse model: body weight and food intake (Example 3); format: in vivo; conditions: 4 weeks administration, 0.20 mg/kg/dose
[5] = tested on: diet-induced obesity (DIO) mouse model; assay: DIO mouse model QD: weight loss and cumulative food intake (Example 7-1); format: in vivo; conditions: DIO mice, QD (once daily), 4-week administration, 45 nmol/kg/dose
Description: The obesity treatment effect of the long-acting GLP analog prepared in Example 1 was evaluated. Specifically, an obesity animal model was prepared to confirm the obesity treatment effect, and after administering a certain amount of material, the model was subjected to measurement of a body weight and the change in food intake, and biochemical tests. First, to establish a diet-induced obesity mouse model, C57BL/6 DIO mice were fed a high-fat diet for 12 weeks, resulting in a body weight that was 130% that of the control (DIO model). Afterward, the mice were grouped at a specific time point to determine the average weight of the DIO model (46.2±2.2), followed by drug administration to the mice for 4 weeks. Here, the body weight and food intake were measured daily.
as §1
To analyze the anti-obesity effect, first, the comparative analysis of weight loss effect and cumulative food intake was conducted. The experimental method was the same as described in Example 3.

[6] = tested on: diet-induced obesity (DIO) mouse model; assay: DIO mouse model QD: fat weight by tissue (Example 7-3); format: in vivo; conditions: fat weight of tissue, DIO mice, QD (once daily), 45 nmol/kg/dose
Description: as §1
To analyze the anti-obesity effect, the amount of fat by tissue was measured postmortem to further confirm the efficacy of the peptide in obesity. Specifically, the epididymal, mesenteric, inguinal, and perirenal tissues of animals euthanized by decapitation were excised to measure the fat weights for each tissue and then photographed.

Chain of GLP-1R (P43220 24-463): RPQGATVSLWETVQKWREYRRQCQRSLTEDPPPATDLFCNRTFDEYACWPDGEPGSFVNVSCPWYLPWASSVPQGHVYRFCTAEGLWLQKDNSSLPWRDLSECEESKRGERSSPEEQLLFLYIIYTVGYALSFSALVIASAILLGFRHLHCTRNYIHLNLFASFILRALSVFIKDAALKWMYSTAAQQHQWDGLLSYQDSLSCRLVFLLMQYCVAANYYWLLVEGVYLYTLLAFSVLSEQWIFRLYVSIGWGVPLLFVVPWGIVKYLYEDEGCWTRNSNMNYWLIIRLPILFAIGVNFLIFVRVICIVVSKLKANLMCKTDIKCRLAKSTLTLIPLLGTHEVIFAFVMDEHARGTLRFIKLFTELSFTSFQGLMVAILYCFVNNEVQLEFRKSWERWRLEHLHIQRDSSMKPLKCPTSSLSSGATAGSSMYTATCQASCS

- GLP-2 activity Compared to GLP-2 (GLP-2): ~ 0.02%
- GLP-1 activity Compared to GLP-1 (Exendin-4) (GLP-1R; Example 5, relative to Exendin-4): 23.6%
- Average (n=4) Relative to GLP-1 (Exendin-4) % (GLP-1R; GLP-1R/CHO cells, cAMP, relative to Exendin-4 (Example 2)): 63.4±29.4%
- Tmax [4]: 8 h
- half-life [4]: 6.6 h
SMILES: CCCCCCCCCCCCCCCC(=O)N[C@@H](CCC(=O)NCCCC[C@H](NC(=O)[C@H](CCCCN)NC(=O)[C@H](CC(=O)O)NC(=O)[C@@H](NC(=O)[C@@H](NC(=O)[C@H](CCCCN)NC(=O)[C@@H](NC(=O)[C@H](CCC(N)=O)NC(=O)[C@@H](NC(=O)[C@H](CC(C)C)NC(=O)[C@H](Cc1c[nH]c2ccccc12)NC(=O)[C@H](CC(N)=O)NC(=O)[C@@H](NC(=O)[C@H](Cc1ccccc1)NC(=O)[C@H](CC(=O)O)NC(=O)[C@H](CCCNC(=N)N)NC(=O)[C@H](C)NC(=O)[C@H](C)NC(=O)[C@H](CC(C)C)NC(=O)[C@H](C)NC(=O)[C@H](CC(=O)O)NC(=O)[C@H](CC(C)C)NC(=O)[C@H](Cc1ccc(O)cc1)NC(=O)[C@@H](NC(=O)[C@H](CO)NC(=O)[C@H](CC(C)C)NC(=O)[C@H](CC(=O)O)NC(=O)[C@H](CO)NC(=O)[C@@H](NC(=O)[C@H](Cc1ccccc1)NC(=O)[C@@H](NC(=O)CNC(=O)[C@H](CCC(=O)O)NC(=O)CNC(=O)[C@@H](N)Cc1c[nH]cn1)[C@@H](C)O)[C@@H](C)O)[C@@H](C)O)[C@@H](C)CC)[C@@H](C)CC)[C@@H](C)O)[C@@H](C)CC)[C@@H](C)O)C(=O)O)C(=O)O [HU020K2FA] (HELM PEPTIDE1{H.G.E.G.T.F.T.S.D.L.S.T.Y.L.D.A.L.A.A.R.D.F.I.N.W.L.I.Q.T.K.I.T.D.K.K}|PEPTIDE2{[CCCCCCCCCCCCCCCC(=O)[*:2]].[gGlu]}$PEPTIDE1,PEPTIDE2,35:R3-2:R2$$$V2.0; N-terminus and C-terminus assumed)
- ALT (U/L) [1]: 34.7±5.9 U/L
- AST (U/L) [1]: 68.5±9.2 U/L
- Liver TG levels (nmol/µ) [2]: 0.81±0.11 nmol/µ
- Fat ([3]; DEXA, DIO mice): 9.6 ± 1.0 g
- Lean ([3]; DEXA, DIO mice): 26.5 ± 1.7 g
- Weight ([3]; Table 9, DIO mice): 37.5 ± 2.6 g
- Weight (%) (Normalized to DIO vehicle) ([3]; Table 9, DIO mice): 80.3±4.4%
- Cumulative food intake (C57BL/6 DIO mice): 55.3 ± 4.0 g
- Weight (C57BL/6 DIO mice): 36.6 ± 4.0 g
- Weight change (%) (C57BL/6 DIO mice; compared to day 0): -19.4±4.7%
- Comparison of weight change (%) [5]: -16.0±3.2%
- Weight [5]: 37.5 ± 2.6 g
- Weight (%) (Normalized to DIO vehicle) [5]: 80.3±4.4%
- Food intake ([5]; cumulative): 16.0 ± 1.8 g
- Epididymal [6]: 1.71±0.16
- Inguinal [6]: 2.37±0.21
- Mesentric [6]: 0.74±0.21
- Perirenal [6]: 0.33±0.08
